Common to all, as to format: cell-based, human
The subject of assay [1] is empty vector-transduced T98G cells. The assay can be described thus: clonogenic assay after one hour cisplatin exposure, empty vector-transduced cells. The following applies: clones counted 7 to 10 days later, read-out: concentration of cisplatin needed to achieve a 50% reduction in colony count.
A further assay concerns T98 Gp53 cells. The assay is described as follows: clonogenic/growth assay after one hour cisplatin exposure, cells transduced with wild-type p53 gene. The method, then:
1). Cells. T98G glioblastoma cells (Mercer et al., “Negative growth regulation in a glioblastoma tumor cell line that conditionally expresses human wild-type p53.” (1990) Proc. Natl. Acad. Sci., USA, 87:6166-6170) were obtained from ATCC and cultured at 37° C. in 10% CO2 in Dulbecco's Modified Eagles Medium supplemented with 10% heat inactivated fetal bovine serum, gentamycin, nonessential amino acids, and sodium pyruvate.
2). Plasmids. A plasmid (pLp53RNL) containing the wild-type p53 gene and the neomycin (G418) resistance gene was used. The plasmid pLp53RNL was kindly provided by Dr. Martin Haas (University of California, San Diego), and has been previously described (Cheng et al., “Suppression of acute lymphoblastic leukemia by the human wild-type p53 gene,” (1992) Cancer Res., 53:222-226). This plasmid carries the retroviral sequence Lp53RNL in which wild-type p53 expression is driven from the Moloney murine leukemia virus (MoMLV) LTR. The neomycin resistance gene is driven from the Rous Sarcoma Virus (RSV) promoter.
3). Transfections. The plasmid was introduced into T98G cells using cationic liposomes. […]
5). […] After 7 days, cells were counted or stained with crystal violet. In the latter case, absorbance at 540 nm is proportional to cell viability. […] Clones were counted 7 to 10 days later by staining in 0.5% methylene blue, 70% ETOH. […]

The subject of a further assay is T98G glioblastoma cells. The assay is described as follows: clonogenic assay after one hour cisplatin exposure, parental cells. Particulars: clones counted 7 to 10 days later, read-out: concentration of cisplatin needed to achieve a 50% reduction in colony count. As to the method:
1). Cells. T98G glioblastoma cells (Mercer et al., “Negative growth regulation in a glioblastoma tumor cell line that conditionally expresses human wild-type p53.” (1990) Proc. Natl. Acad. Sci., USA, 87:6166-6170) were obtained from ATCC and cultured at 37° C. in 10% CO2 in Dulbecco's Modified Eagles Medium supplemented with 10% heat inactivated fetal bovine serum, gentamycin, nonessential amino acids, and sodium pyruvate. […] 5). Control parental T98G cells and T98 Gp53 cells which had been adapted 2 weeks to culture in the absence of the antibiotics G418 were plated in 24 well plates at about 2×10^4 cells per well. The next day they were exposed for one hour to varying concentrations of cisplatin (a chemotherapeutic agent) from 10 to 40 μM in increments of 10 μM. The cisplatin was removed after one hour and replaced with complete medium (DMEM+10% Fetal Bovine Serum) and cells were allowed to grow for 7 days. After 7 days, cells were counted or stained with crystal violet. In the latter case, absorbance at 540 nm is proportional to cell viability. For clonogenic assays, cells were replated following treatment in 6 well plates at 500-1000 cells per well. Clones were counted 7 to 10 days later by staining in 0.5% methylene blue, 70% ETOH. Colony counts from p53 transfectants and parental T98G glioblastoma cells were compared. […] Subsequent assays confirmed this increased sensitivity. […]

As to `N.N.[Cl][Pt][Cl]` [cisplatin], the IC50 in assay [1] is ~30 µM; in the assay with T98 Gp53 cells (cells transduced with wild-type p53 gene, one hour exposure, clones counted 7 to 10 days later, read-out: concentration of cisplatin needed to achieve a 50% reduction in colony count), 15 to 20 µM; in the assay with T98G glioblastoma cells, ~30 µM. In addition, the “sensitivity of T98 Gp53 cells to the effects of cisplatin compared with parental T98G cells (FIG. 1)” value in the assay with T98 Gp53 cells (cisplatin 10 to 40 μM, one hour) was “considerably more sensitive”.

Source of the values: patent US20040072775A1, “Enhancing the sensitivity of tumor cells to therapies” (priority 1994, published 2004).
